What was measured:
Type in all cases: biochemical
[1] = target: T1, MMP-1 (Homo sapiens, UniProt P03956); test: MMP-1 inhibition (thiopeptide or fluorescent peptide substrate); conditions: read-out: MMP-1 IC50
T1 sequence (P03956 100-469): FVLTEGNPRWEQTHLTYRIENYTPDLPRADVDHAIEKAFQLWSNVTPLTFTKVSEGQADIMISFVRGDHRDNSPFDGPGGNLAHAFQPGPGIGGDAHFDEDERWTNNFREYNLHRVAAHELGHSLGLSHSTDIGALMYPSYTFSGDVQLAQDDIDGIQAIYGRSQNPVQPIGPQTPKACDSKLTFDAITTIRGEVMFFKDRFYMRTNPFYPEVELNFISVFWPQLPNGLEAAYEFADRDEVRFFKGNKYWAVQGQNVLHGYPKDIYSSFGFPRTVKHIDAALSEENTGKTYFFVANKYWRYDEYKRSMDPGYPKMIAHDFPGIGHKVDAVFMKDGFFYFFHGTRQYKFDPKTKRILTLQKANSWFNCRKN

[2] = target: TNF-α converting enzyme (TACE) (Homo sapiens, UniProt P78536); test: TACE inhibition (fluorescent peptidyl substrate); conditions: read-out: TACE IC50
TNF-α converting enzyme (TACE), sequence (P78536 215-824, species assumed): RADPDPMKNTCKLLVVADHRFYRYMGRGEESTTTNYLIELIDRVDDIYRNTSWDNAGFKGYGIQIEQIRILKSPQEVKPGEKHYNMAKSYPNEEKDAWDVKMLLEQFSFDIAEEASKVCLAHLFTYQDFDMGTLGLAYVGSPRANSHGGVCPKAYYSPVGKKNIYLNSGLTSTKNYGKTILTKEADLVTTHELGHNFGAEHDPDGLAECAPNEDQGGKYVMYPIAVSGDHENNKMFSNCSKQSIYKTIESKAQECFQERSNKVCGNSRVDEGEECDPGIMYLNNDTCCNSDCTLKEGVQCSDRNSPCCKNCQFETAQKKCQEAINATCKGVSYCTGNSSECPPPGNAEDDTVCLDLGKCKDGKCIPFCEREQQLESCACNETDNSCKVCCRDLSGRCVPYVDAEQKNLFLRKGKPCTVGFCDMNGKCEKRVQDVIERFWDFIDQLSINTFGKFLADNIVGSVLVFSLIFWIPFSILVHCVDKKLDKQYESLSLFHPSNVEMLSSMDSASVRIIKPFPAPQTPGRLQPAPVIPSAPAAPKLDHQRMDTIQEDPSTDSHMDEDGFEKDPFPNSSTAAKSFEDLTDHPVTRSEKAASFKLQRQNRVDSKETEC

[3] = target: MMP-9 (Homo sapiens, UniProt P14780); test: MMP-9 inhibition (thiopeptide or fluorescent peptide substrate); conditions: read-out: MMP-9 IC50
MMP-9, sequence (P14780 94-707): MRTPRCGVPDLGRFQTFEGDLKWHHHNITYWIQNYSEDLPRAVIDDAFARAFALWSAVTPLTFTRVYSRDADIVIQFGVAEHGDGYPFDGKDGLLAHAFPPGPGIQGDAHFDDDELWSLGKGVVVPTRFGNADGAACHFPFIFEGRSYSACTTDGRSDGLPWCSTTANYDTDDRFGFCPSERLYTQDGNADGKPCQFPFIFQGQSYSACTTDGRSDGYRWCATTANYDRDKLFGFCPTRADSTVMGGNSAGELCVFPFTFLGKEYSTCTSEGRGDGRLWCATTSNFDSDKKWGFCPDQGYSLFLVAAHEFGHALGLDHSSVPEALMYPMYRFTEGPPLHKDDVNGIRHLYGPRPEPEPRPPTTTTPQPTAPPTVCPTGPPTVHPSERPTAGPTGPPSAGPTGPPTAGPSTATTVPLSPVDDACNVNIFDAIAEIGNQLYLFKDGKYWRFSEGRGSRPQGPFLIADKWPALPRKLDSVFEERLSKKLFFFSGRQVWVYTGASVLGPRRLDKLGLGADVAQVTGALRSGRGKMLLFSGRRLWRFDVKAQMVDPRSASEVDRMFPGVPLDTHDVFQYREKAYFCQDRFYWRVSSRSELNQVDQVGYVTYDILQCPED

[4] = target: MMP-13 (Homo sapiens, UniProt P45452); test: MMP-13 inhibition (thiopeptide or fluorescent peptide substrate); conditions: read-out: MMP-13 IC50

Compound	IC50 [1] [nM]	IC50 [2] [nM]	IC50 [3] [nM]	IC50 [4] [nM]
CC#CCOc1ccc(S(=O)(=O)NC(C(=O)NO)c2ccc(O)cc2)cc1 (stereo not shown) [Example 176, 2-({[4-(2-Butynyloxy)phenyl]sulfonyl}amino)-N-hydroxy-2-(4-hydroxyphenyl)acetamide]	~10000	4	898	103
CC#CCOc1ccc(S(=O)(=O)N(C)C(C(=O)NO)c2ccc(OCCN3CCOCC3)cc2)cc1 (stereo not shown) [Example 179, 2-[{[4-(2-Butynyloxy)phenyl]sulfonyl}(methyl)amino]-N-hydroxy-2-{4-[2-(4-morpholinyl)ethoxy]phenyl}acetamide]	546	52	29	11
CC#CCOc1ccc(S(=O)(=O)N(C)C(C(=O)NO)c2ccc(OCCNC(=O)OC(C)(C)C)cc2)cc1 (stereo not shown) [Example 180, tert-Butyl 2-(4-[1-[{[4-(2-Butynyloxy)phenyl]sulfonyl}(methyl)amino]-2-(hydroxyamino)-2-oxoethyl]phenoxy}ethylcarbamate]	599	265	34	9.3
CC#CCOc1ccc(S(=O)(=O)N(C)C(C(=O)NO)c2ccc(OCCN)cc2)cc1 (stereo not shown) [Example 181, 2-[4-(2-Aminoethoxy)phenyl]-2-[{[4-(2-butynyloxy)phenyl]sulfonyl}(methyl)amino]-N-hydroxyacetamide]	645	16	26	24
CC#CCOc1ccc(S(=O)(=O)N(C)C(C(=O)NO)c2ccc(OCCCNC(=O)OC(C)(C)C)cc2)cc1 (stereo not shown) [Example 187, tert-Butyl 3-{4-[1-[{[4-(2-Butynyloxy)phenyl]sulfonyl}(methyl)amino]-2-(hydroxyamino)-2-oxoethyl]phenoxy}propylcarbamate]	910	199	46	13
CC#CCOc1ccc(S(=O)(=O)N(C)[C@@H](C(=O)NO)c2ccc(O[C@H]3CCNC3)cc2)cc1 [Example 190, (2R)-2-[{[4-(2-Butynyloxy)phenyl]sulfonyl}(methyl)amino]-N-hydroxy-2-{4-[(3S)-pyrrolidinyloxy]phenyl}ethanamide]	527	32	37	29
CC#CCOc1ccc(S(=O)(=O)N[C@@H](C(=O)NO)c2ccc(OCCN)cc2)cc1 [Example 200, (2R)-2-[4-(2-Aminoethoxy)phenyl]-2-({[4-(2-butynyloxy)phenyl]sulfonyl}amino)-N-hydroxyethanamide]	~10000	15	518	176
CC#CCOc1ccc(S(=O)(=O)N[C@@H](C(=O)NO)c2ccc(OCCNC(C)=O)cc2)cc1 [Example 201, (2R)-2-{4-[2-(Acetylamino)ethoxy]phenyl}-2-({[4-(2-butynyloxy)phenyl]sulfonyl}amino)-N-hydroxyethanamide]	~10000	9.4	569	73
CC#CCOc1ccc(S(=O)(=O)N2CCN(C(=O)N3CCOCC3)CC2C(=O)NO)cc1 (stereo not shown) [Example 215, 1-(4-but-2-ynyloxy-Benzenesulfonyl)-4-(morpholine-4-carbonyl)-piperazine-2-carboxylic Acid Hydroxyamide]	695	35	60	39
CC#CCOc1ccc(S(=O)(=O)N2CCN(C(=O)N3CCCC3)CC2C(=O)NO)cc1 (stereo not shown) [Example 217, 1-(4-but-2-ynyloxy-Benzenesulfonyl)-4-(pyrrolidine-1-carbonyl)-piperazine-2-carboxylic Acid Hydroxyamide]	1250	28	209	83
CC#CCOc1ccc(S(=O)(=O)N2CCN(C(=O)N(C(C)C)C(C)C)CC2C(=O)NO)cc1 (stereo not shown) [Example 218, 4-(4-but-2-ynyloxy-Benzenesulfonyl)-piperazine-1,3-dicarboxylic Acid 1-Diisopropylamide 3-Hydroxyamide]	3290	49	822	213
CC#CCOc1ccc(S(=O)(=O)N2CCN(C(=O)N(C)c3ccccc3)CC2C(=O)NO)cc1 (stereo not shown) [Example 220, 4-(4-but-2-ynyloxy-Benzenesulfonyl)-piperazine-1,3-dicarboxylic Acid 3-Hydroxyamide 1-(Methyl-phenyl-amide)]	1640	20	561	62
CC#CCOc1ccc(S(=O)(=O)N2CCN(C(=O)Nc3ccc(OC)cc3)CC2C(=O)NO)cc1 (stereo not shown) [Example 221, 4-{[4-(2-Butynyloxy)phenyl]sulfonyl}-N-3-hydroxy-N-1-(4-methoxyphenyl)-1,3-piperazinedicarboxamide]	1510	69	576	182

Continued, values first:

IC50 [1] [nM]	IC50 [2] [nM]	IC50 [3] [nM]	IC50 [4] [nM]	Compound
24	31	31	14	CC#CCOc1ccc(S(=O)(=O)N(C)C(C(=O)NO)C(C)(C)SCCC)cc1 (stereo not shown) [Example 151, 2-[(4-but-2-ynyloxy-Benenesulfonyl)-methyl-amino]-N-hydroxy-3-methyl-3-propylsulfanyl-butyramide]
< 10000	4.8	310	57	C#CCOc1ccc(C(NS(=O)(=O)c2ccc(OCC#CC)cc2)C(=O)NO)cc1 (stereo not shown) [Example 177, 2-({[4-(2-Butynyloxy)phenyl]sulfonyl}amino)-N-hydroxy-2-[4(2-propynyloxy)phenyl]acetamide]
482	23	43	14	CC#CCOc1ccc(S(=O)(=O)N(C)C(C(=O)NO)c2ccc(OC)cc2)cc1 (stereo not shown) [Example 178, 2-[{[4-(2-Butynyloxy)phenyl]sulfonyl}(methyl)amino]-N-hydroxy-2-(4-methoxyphenyl)acetamide]
487	16	22	15	CC#CCOc1ccc(S(=O)(=O)N(C)C(C(=O)NO)c2ccc(OCCN(C)C)cc2)cc1 (stereo not shown) [Example 182, 2-[{[4-(2-Butynyloxy)phenyl]sulfonyl}(methyl)amino]-2-{4-[2-(dimethylamino)ethoxy]phenyl}-N-hydroxyacetamide]
497	40	55	42	CC#CCOc1ccc(S(=O)(=O)N(C)C(C(=O)NO)c2ccc(OCCN3CCCC3)cc2)cc1 (stereo not shown) [Example 183, 2-[{[4-(2-Butynyloxy)phenyl]sulfonyl}(methyl)amino]-N-hydroxy-2-{4-[2-(1-pyrrolidinyl)ethoxy]phenyl}acetamide]
434	35	55	11	CC#CCOc1ccc(S(=O)(=O)N(C)C(C(=O)NO)c2ccc(OCCN3CCCC3=O)cc2)cc1 (stereo not shown) [Example 184, 2-[{[4-(2-Butynyloxy)phenyl]sulfonyl}(methyl)amino]-N-hydroxy-2-{4-[2-(2-oxo-1-pyrrolidinyl)ethoxy]phenyl}acetamide]
839	309	53	27	CC#CCOc1ccc(S(=O)(=O)N(C)C(C(=O)NO)c2ccc(OCCN3CCN(C(=O)OC(C)(C)C)CC3)cc2)cc1 (stereo not shown) [Example 185, tert-Butyl 4-(2-{4-[1-[{[4-(2-Butynyloxy)phenyl]sulfonyl}(methyl)amino]-2-(hydroxyamino)-2-oxoethyl]phenoxy}ethyl)-1-piperazinecarboxylate]
568	31	32	21	CC#CCOc1ccc(S(=O)(=O)N(C)C(C(=O)NO)c2ccc(OCCN3CCNCC3)cc2)cc1 (stereo not shown) [Example 186, 2-[{[4-(2-butynyloxy)phenyl]sulfonyl}(methyl)amino]-N-hydroxy-2-{4-[2-(1-piperazinyl)ethoxy]phenyl}acetamide]
469	25	48	41	CC#CCOc1ccc(S(=O)(=O)N(C)C(C(=O)NO)c2ccc(OCCCN)cc2)cc1 (stereo not shown) [Example 188, 2-[4-(3-Aminopropoxy)phenyl]-2-[{[4-(2-butynyloxy)phenyl]sulfonyl}(methyl)amino]-N-hydroxyacetamide]
2440	231	297	120	CC#CCOc1ccc(S(=O)(=O)N(C)[C@@H](C(=O)NO)c2ccc(O[C@H]3CCN(C(=O)OC(C)(C)C)C3)cc2)cc1 [Example 189, tert-Butyl(3S)-3-{4-[(1R)-1-[{[4-(2-butynyloxy)phenyl]sulfonyl}(methyl)amino]-2-(hydroxyamino)-2-oxoethyl]phenoxy}-1-pyrrolidinecarboxylate]
~10000	42	862	139	CC#CCOc1ccc(S(=O)(=O)N[C@@H](C(=O)NO)c2ccc(OCCNC(=O)OC(C)(C)C)cc2)cc1 [Example 199, tert-Butyl 2-{4-[(1R)-1-({[4-(2-Butynyloxy)phenyl]sulfonyl}amino)-2-(hydroxyamino)-2-oxoethyl]phenoxy}ethylcarbamate]
496	8	43	20	CC#CCOc1ccc(S(=O)(=O)N(C)C(C(=O)NO)c2ccccc2)cc1 (stereo not shown) [Example 211, 2-[{[4-(2-Butynyloxy)phenyl]sulfonyl}(methyl)amino]-N-hydroxy-2-phenylacetamide]

— US6716833B2, “Acetylenic α-amino acid-based sulfonamide hydroxamic acid tace inhibitors” (priority 1999, dated 2004)
